Patent US7754722B2, “Piperazine derivatives and methods of use” (Merck Serono SA, priority 2002, dated 2010)

Target: T1, FSH receptor (Homo sapiens, UniProt P23945)
T1 construct: expressed in transfected cells; host or cells: CHO (Chinese Hamster Ovary) cells, stably transfected, carrying a cAMP response element-luciferase reporter
T1 sequence (P23945 18-695): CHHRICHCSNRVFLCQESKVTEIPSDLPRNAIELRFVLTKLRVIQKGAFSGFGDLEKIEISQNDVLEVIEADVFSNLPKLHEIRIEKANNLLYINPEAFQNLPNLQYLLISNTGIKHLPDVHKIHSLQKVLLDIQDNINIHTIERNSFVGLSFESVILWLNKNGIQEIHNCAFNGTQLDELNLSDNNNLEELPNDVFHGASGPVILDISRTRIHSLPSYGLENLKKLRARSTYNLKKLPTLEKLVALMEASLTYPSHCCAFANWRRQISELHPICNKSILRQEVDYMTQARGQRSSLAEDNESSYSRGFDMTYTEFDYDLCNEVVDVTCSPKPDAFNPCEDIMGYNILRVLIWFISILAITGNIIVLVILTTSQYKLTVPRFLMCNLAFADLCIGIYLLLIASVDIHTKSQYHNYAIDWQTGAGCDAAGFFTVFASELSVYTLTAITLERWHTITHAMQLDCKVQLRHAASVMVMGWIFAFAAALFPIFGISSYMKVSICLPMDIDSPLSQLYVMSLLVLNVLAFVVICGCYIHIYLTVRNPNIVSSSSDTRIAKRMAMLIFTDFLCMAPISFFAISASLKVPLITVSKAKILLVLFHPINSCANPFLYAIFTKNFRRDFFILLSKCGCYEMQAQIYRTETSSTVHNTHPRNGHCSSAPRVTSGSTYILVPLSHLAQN
Assay: FSH assay: cAMP response element luciferase reporter in CHO cells expressing recombinant FSH receptor
Assay type: cell-based
Conditions: agonist activity; CHO cells stably transfected with recombinant FSH receptor; luciferase luminescence; log-dose-response curves; incubation 37° C. for 3 hrs 30 min; read-out: ED50 (the source's name)
Experimental: Compounds of the invention were tested in the following assay.
All compounds of the invention were stored in 96-well deepwell plates in DMSO at a nominal concentration of 10 μM. Compounds of the invention were screened for agonist activity at the FSH receptor using the recombinant FSH receptor stably transfected and expressed in Chinese Hamster Ovary Cells (CHO cells) essentially as described in the work by Kelton, et al. Molecular and Cellular Endocrinology, 1992, 89, 141-151). […] Thus an agonist at the FSH receptor increases cAMP in the cell which results in activation of the CREB (cAMP) response element binding protein). The substrate for the enzyme (Packard Instrument Company 800 Research Parkway, Meriden, Conn. 06450, USA) was added to the cells after appropriate incubation with the compounds or FSH and the amount of luciferase expressed was measured by quantitating the luminescence produced by the enzyme using a TopCount scintillation/luminescence counter running in single photon counting mode. A compound which acts as an agonist at the receptor should produce light from the treated cells in proportion to its concentration within the incubation. Luminescence should be saturable at high concentrations of the compound.
The compounds of the invention, in deepwell plates (Master plates) as indicated above were loaded on the robotic deck along with the appropriate number of assay plates and daughter plates. A 10 μl aliquot from each master plate was transferred to the corresponding daughter plate and 90 μl of DME/F12 was added and mixed within each well. 20 μl was then removed from the daughter plate and dispensed into the assay plate. After addition of an aliquot of FSH (equivalent to an EC100 response for this hormone to each of three wells on the plate, 80 μl of media (DME/F 12±2% serum) and 100 μl aliquot of cells (4×10^5/ml in the same media) were added and the plate incubated at 37° C. for 3 hrs 30 min. At this time the plate was removed from the incubator and media in each well was aspirated and the cells adhering to the bottom of the plate washed with 300 μl PBS containing 1 mM Ca^2+ and 1 mM Mg^2+. The PBS was aspirated and 100 μl PBS added to each well. 100 μl of Lucite (prepared as described by the manufacturer) was added to each well and the plate was shaken gently for 40 seconds prior to placement in the TopCount plate reader. After allowing 3.5 minutes for the plate to dark-adapt within the machine, the amount of luminescence generated was quantitated using Single Photon Counting mode. The data was transmitted electronically from the TopCount to the robot processing computer terminal and was renamed with an ID corresponding to the original master plate ID. […] LDR (log-dose-response) curves were generated for these compounds in CHO cells containing the FSH receptor and these curves were also compared with those in either cells expressing a different Gs linked receptor or in cells lacking any transfected receptor.

Row | EC50 [nM] | SMILES
1 | 1600 | CCc1cocc1CN1CCN(S(=O)(=O)c2cccs2)[C@H](C(=O)Nc2ccc3c(c2)c2ccccc2n3CC)C1 [4-(4-ethyl-furan-3-ylmethyl)-1-(thiophene-2-sulfonyl)-piperazine-2-carboxylic acid (9-ethyl-9H-carbazol-3-yl)-amide]
2 | 5000 | CCCCCNC(=O)N1CCN(S(=O)(=O)c2cccs2)[C@H](C(=O)Nc2cccc(-c3ccncc3)c2)C1 [4-(thiophene-2-sulfonyl)-piperazine-1,3-dicarboxyclic acid 1-pentylamide 3-[(3-pyridin-4-yl-phenyl)-amide]]
3 | 877 | CCNC(=O)N1CCN(S(=O)(=O)c2cccs2)[C@H](C(=O)Nc2ccc3c(c2)c2ccccc2n3CC)C1 [4-(thiophene-2-sulfonyl)-piperazine-1,3-dicarboxylic acid 1-ethylamide 3-[(9-ethyl-9H-carbazol-3-yl)amide]]
4 | 6470 | CCn1c2ccccc2c2cc(NC(=O)[C@@H]3CN(C(=O)NCCCn4ccnc4)CCN3S(=O)(=O)c3cccs3)ccc21 [4-(thiophene-2-sulfonyl)-piperazine-1,3-dicarboxylic acid 3-[(9-ethyl-9H-carbazol-3-yl)-amide]1-[(3-imidazol-1-yl-propyl)-amide])]
5 | 1610 | CCn1c2ccccc2c2cc(NC(=O)[C@@H]3CN(C(=O)NCCOC)CCN3S(=O)(=O)c3cccs3)ccc21 [4-(thiophene-2-sulfonyl)-piperazine-1,3-dicarboxylic acid 3-[(9-ethyl-9H-carbazol-3-yl)-amide]1-{(2-methoxy-ethyl)-amide]]
6 | 6250 | CCn1c2ccccc2c2cc(NC(=O)[C@@H]3CN(C(=O)NCCc4c[nH]cn4)CCN3S(=O)(=O)c3cccs3)ccc21 [4-(thiophene-2-sulfonyl)-piperazine-1,3-dicarboxylic acid 3-[(9-ethyl-9H-carbazol-3-yl)-amide] 1-{[2-(1H-imidazol-4-yl)-ethyl]-amide}]
7 | 63 | CCCCCNC(=O)N1CCN(S(=O)(=O)c2cccs2)[C@H](C(=O)Nc2ccc3c(c2)c2ccccc2n3CC)C1 [4-(thiophene-2-sulfonyl)-piperazine-1,3-dicarboxylic acid 3-[(9-ethyl-9H-carbazol-3-yl)amide]-1-pentylamide]
8 | 403 | CCCCCNC(=O)N1CCN(S(=O)(=O)N(C)C)[C@H](C(=O)Nc2ccc3c(c2)c2ccccc2n3CC)C1 [4-dimethylsulfamoyl-piperazine-1,3-dicarboxylic acid 3-[(9-ethyl-9H-carbazol-3-yl)-amide]1-pentylamide]
9 | 94 | CCCCCCCN1CCN(S(=O)(=O)c2cccs2)[C@H](C(=O)Nc2ccc3c(c2)nc(-c2cccnc2)n3CC)C1 [4-heptyl-1-(thiophene-2-sulfonyl)-piperazine-2-carboxylic acid (1-ethyl-2-pyridin-3-yl-1H-benzoimidazol-5-yl)-amide]
10 | 53 | CCCCCCCN1CCN(S(=O)(=O)c2cccs2)[C@H](C(=O)Nc2ccc3c(c2)nc(-c2ccncc2)n3CC)C1 [4-heptyl-1-(thiophene-2-sulfonyl)-piperazine-2-carboxylic acid (1-ethyl-2-pyridin-4-yl-1H-benzoimidazol-5-yl)amide]
11 | 1200 | CCCCCCCN1CCN(S(=O)(=O)c2cccs2)C(C(=O)Nc2ccc3[nH]c4c(c3c2)CCNC4=O)C1 (stereo not drawn) [4-heptyl-1-(thiophene-2-sulfonyl)-piperazine-2-carboxylic acid (1-oxo-2,3,4,9-tetrahydro-1H-beta-carbolin-6-yl)amide]
12 | 111 | CCCCCCN1CCN(S(=O)(=O)c2cccs2)[C@H](C(=O)Nc2ccc3c(c2)nc(-c2ccncc2)n3CC)C1 [4-hexyl-1-(thiophene-2-sulfonyl)-piperazine-2-carboxylic acid (1-ethyl-2-pyridin-4-yl-1H-benzoimidazol-5-yl)amide]
13 | 40 | CCCCCCN1CCN(S(=O)(=O)c2cccs2)[C@H](C(=O)Nc2ccc3c(c2)nc(-c2cccnc2)n3CC)C1 [4-hexyl-1-(thiophene-2-sulfonyl)-piperazine-2-carboxylic acid (1-ethyl-2-pyridinyl-3-yl-1H-benzoimidazole-5-yl)-amide)]
14 | 978 | CCCCCCN1CCN(S(=O)(=O)c2cccs2)[C@H](C(=O)Nc2ccc3[nH]c4c(c3c2)CCNC4=O)C1 [4-hexyl-1-(thiophene-2-sulfonyl)-piperazine-2-carboxylic acid (1-oxo-2,3,4,9-tetrahydro-1H-beta-carbolin-6-yl)-amide]

The remaining lines, values behind:

Row | SMILES | EC50 [nM]
15 | CCCCCCN1CCN(S(=O)(=O)c2ccccc2F)[C@H](C(=O)Nc2ccc3c(c2)nc(-c2cccnc2)n3CC)C1 [1-(2-fluoro-benzenesulfonyl)-4-hexyl-piperazine-2-carboxylic acid (1-ethyl-2-pyridin-3-yl-1H-benzoimidazol-5-yl)amide] | 74
16 | CCCCCCN1CCN(S(=O)(=O)c2ccc(F)cc2)[C@H](C(=O)Nc2ccc3c(c2)nc(-c2cccnc2)n3CC)C1 [1-(4-fluoro-benzenesulfonyl)-4-hexyl-piperazine-2-carboxylic acid (1-ethyl-2-pyridin-3-yl-1H-benzoimidazol-5-yl)amide] | 167
17 | CCCCCCN1CCN(S(=O)(=O)CCCC)[C@H](C(=O)Nc2ccc3c(c2)nc(-c2cccnc2)n3CC)C1 [1-(butane-1-sulfonyl)-4-hexyl-piperazine-2-carboxylic acid (1-ethyl-2-pyridin-3-yl-1H-benzoimidazol-5-yl)amide] | 170
18 | CCCCCCN1CCN(S(=O)(=O)c2ccccc2)[C@H](C(=O)Nc2ccc3c(c2)nc(-c2cccnc2)n3CC)C1 [1-benzenesulfonyl-4-hexyl-piperazine-2-carboxylic acid (1-ethyl-2-pyridin-3-yl-1H-benzoimidazol-5-yl)amide] | 150
19 | CCCCCCN1CCN(S(=O)(=O)N(C)C)C(C(=O)Nc2ccc3c(c2)nc(-c2cccnc2)n3CC)C1 (centres unmarked) [1-dimethylsulfamoyl-4-hexyl-piperazine-2-carboxylic acid (1-ethyl-2-pyridin-3-yl-1H-benzoimidazol-5-yl) amide] | 242
20 | CCOC(=O)CN1CCN(S(=O)(=O)c2cccs2)[C@H](C(=O)Nc2ccc3c(c2)c2ccccc2n3CC)C1 [3-(9-ethyl-9H-carbazol-3-ylcarbamoyl)-4-(thiophene-2-sulfonyl)-piperazin-1-yl] acetic acid ethyl ester] | 610
21 | CCCCCNC(=O)N1CCN(S(=O)(=O)c2cn(C)cn2)[C@H](C(=O)Nc2ccc3c(c2)c2ccccc2n3CC)C1 [4-(1-methyl-1H-imidazole-4-sulfonyl)-piperazine-1,3-dicarboxylic acid 3-[(9-ethyl-9H-carbazol-3-yl)-amide]1-pentylamide] | 3160
22 | CCn1c(-c2ccncc2)nc2cc(NC(=O)[C@@H]3CN(CCCSC)CCN3S(=O)(=O)c3cccs3)ccc21 [4-(3-methylsulfanyl-propyl)-1-(thiophene-2-sulfonyl)-piperazine-2-carboxylic acid (1-ethyl-2-pyridin-4-yl-1H-benzoimidazol-5-yl)amide] | 14000
23 | CCn1c2ccccc2c2cc(NC(=O)[C@@H]3CN(CCCSC)CCN3S(=O)(=O)c3cccs3)ccc21 [4-(3-methylsulfanyl-propyl)-1-(thiophene-2-sulfonyl)-piperazine-2-carboxylic acid (9-ethyl-9H-carbazol-3-yl)-amide] | 1700
